Experimental data from patent US20080292576A1, “METHOD FOR IDENTIFYING HAIR CONDITIONER-RESISTANT HAIR-BINDING PEPTIDES AND HAIR BENEFIT AGENTS THEREFROM” (E.I. du Pont de Nemours and Co., priority 2005, published 2008).
Each block holds one substance with its values, some of them ahead of it. Where no end group is shown, it is not given here. 5‑FAM = 5-carboxyfluorescein-aminohexyl amidite fluorescent tag

Experiments:
[1] = ELISA binding to hair bundles from a hair conditioner matrix or buffer; set-up: species or system human; conditions: for Buffer A450 ± SEM / 100% Conditioner A450 ± SEM: hair bundles, 30 min at 37° C.; for Buffer A450 ± SEM: 20 μM peptide in buffer; for 100% Conditioner A450 ± SEM: 20 μM peptide in undiluted Dove Extra Volume Conditioner; for difference in hair-binding activity from a hair conditioner matrix compared to buffer: ELISA of Table 3
Protocol: The same ELISA method described in Example 4 was used, except that the hair samples were assembled into bundles, instead of being cast as wells in a 96-well apparatus. To prepare the hair sample bundles, 100 pieces of 1 cm-long hairs were assembled together and taped at one end with narrow tape (3 M, St. Paul, Minn.). The hair was prepared as described in Examples 1-3 and placed into a flat-bottom block (Qiagen Science, Germantown, Md.; Cat. No. 19579).
The HCP.1(5-FAM) and HCP.6(5-FAM) hair-binding peptides, as described in Example 4, were mixed separately with undiluted hair conditioner (Dove® Extra Volume Conditioner; Unilever) using a high-shear mixer (Silverson, Model L4R7A; Silverson Machines, East Longmeadow, Mass.) for 6 min to give a final peptide concentration of 20 μM. The hair samples were blocked as described in Example 4 and then incubated in the peptide-conditioner mixtures for 30 min at 37° C. The hair samples were then washed and treated as described in Example 4. After the final wash step after the addition of the Anti-Mouse IgG-HRP conjugate, the hair bundles were transferred to new tubes and the TMB substrate was added. The hair bundles were incubated for 10 min at room temperature, and then a 100 μL sample from each tube was taken and added to a well in a microtiter plate. Then, 100 μL of Stop solution (2 M sulfuric acid solution) was added to each well and the absorbance of each sample was measured at a wavelength of 450 nm.
The binding of the HCP.1(5-FAM) and HCP.6(5-FAM) hair-binding peptides to hair from buffer was determined using the same procedure. In addition, controls were run using the same procedure, without any hair-binding peptide present, in both hair conditioner and buffer.

[2] = ELISA determination of specificity, binding to pig skin; conditions: for Skin A450 ± SEM: ELISA, 20 μM fluorescein-labeled peptide in binding buffer, 30 min at 37° C., pig skin, absorbance at 450 nm; for binding to skin (in words): ELISA of Table 2, pig skin
Description: (§1) The hair-binding peptides HCP.1 (SEQ ID NO:1) and HCP.6 (SEQ ID NO:4) were used in this Example along with a control peptide, an unrelated skin-binding peptide, Skin 1 (Huang et al., U.S. Patent Application Publication No. 2005/0050656), given as SEQ ID NO:8. All of the peptides were synthesized with an added lysine residue, derivatized with the fluorescent tag 5-carboxyfluorescein-aminohexyl amidite (5-FAM), at the C-terminus by SynPep (Dublin, Calif.). The sequences of the derivatized hair binding peptides HCP.1(5-FAM) and HCP.6(5-FAM) are given as SEQ ID NOs:9 and 10, respectively. The sequence of the derivatized skin-binding peptide control Skin 1(5-FAM) is given as SEQ ID NO:11.
(§2) For the assay, a unique hair or pig skin-bottom 96-well apparatus was created by applying one layer of Parafilm® under the top 96-well block of a Minifold I Dot-Blot System (Schleicher & Schuell, Inc., Keene, N.H.), adding hair or a layer of hairless pig skin on top of the Parafilm® cover, and then tightening the apparatus. The hair or skin sample in the 96-well apparatus was first blocked with SuperBlock® Blocking Buffer (Tris-buffered; Pierce Biotechnology, Rockford, Ill.) by incubating the sample for 1 h at room temperature. Then, the hair or skin sample was washed six times with wash buffer (TBST-0.5%). The fluorescein-labeled peptide, at a concentration of 20 μM in 1.0 mL of binding buffer (TBST-0.5% containing 1 mg/mL BSA), was added to each well and incubated for 30 min at 37° C. The hair or skin sample was washed six times with TBST-0.5%, and then, 1.0 mL of anti-fluorescein/Mouse IgG (Molecular Probes, Inc., Eugene, Oreg.) solution (1:1000 dilution in blocking buffer) was added per well. The samples were incubated for 1 h at room temperature and then washed six times with wash buffer. Then, 1.0 mL of Anti-Mouse IgG-HRP conjugate (Pierce Biotechnology) solution (1:1000 dilution in blocking buffer) was added to each well and the samples were incubated for 1 h at room temperature. The samples were washed six times with wash buffer, and 300 μL of TMB Substrate (Pierce Biotechnology) was added to each well. The samples were incubated for 10 min at room temperature and then a 100 μL sample from each well was taken and added to a well in a new microtiter plate. Then, 100 μL of Stop solution (2 M sulfuric acid solution) was added to each well and the absorbance of each sample was measured at a wavelength of 450 nm.

[3] = ELISA determination of specificity, binding to hair; set-up: species or system human; conditions: for Hair A450 ± SEM: ELISA, 20 μM fluorescein-labeled peptide in binding buffer, 30 min at 37° C., absorbance at 450 nm; for binding to hair (in words): ELISA of Table 2
Description: as §1, §2

[4] = Shampoo resistance of hair binding (ELISA after 30% shampoo wash); set-up: species or system human; conditions: wash with 30% shampoo (Pantene Pro-V, Sheer Volume)
Protocol: Experiments were also done to determine if the hair conditioner-resistant hair-binding peptides were also shampoo resistant. For these experiments, the hair, after contacting with the hair-binding peptide (HCP.1 or HCP.6), was washed with a solution containing 30% shampoo (Pantene Pro-V, Sheer Volume, Proctor & Gamble, Cincinnati, Ohio) and the binding activity was determined using the ELISA method described above and compared to that obtained with buffer washes.

[5] = Stability of hair-binding activity in a hair conditioner matrix (ELISA over time); set-up: species or system human; conditions: 21 days in hair conditioner matrix, room temperature; FIGS. 1 and 2
Protocol: Separate mixtures of the hair-binding peptides HCP.1 and HCP.6 in hair conditioner were prepared as described in Example 5. For purposes of comparison, solutions of the hair-binding peptides in buffer were used. All the solutions were stored at room temperature and the binding activity of the peptides was determined using the ELISA procedure described in Example 5 using samples taken at different periods of time.

- Skin A450 ± SEM [2]: 0.328 ± 0.146
- Hair A450 ± SEM [3]: −0.001 ± 0.041
Substance: Skin 1(5-FAM): skin-binding control peptide Skin 1 with added C-terminal lysine derivatized with 5-FAM (TPFHSPENAPGSK(5‑FAM)) [reference compound]

- binding to skin (in words) [2]: high skin-binding activity
- binding to hair (in words) [3]: low hair-binding activity
Substance: Skin 1: control peptide, an unrelated skin-binding peptide (Huang et al., US 2005/0050656) (TPFHSPENAPGS; Skin-binding peptide) [reference compound]

Second part, the substance before the results:

Substance: HCP.1(5-FAM): HCP.1 with an added C-terminal lysine derivatized with fluorescent tag 5-carboxyfluorescein-aminohexyl amidite (THSTHNHGSPRHTNADAGNPK(5‑FAM))
- Buffer A450 ± SEM [1]: 1.593 ± 0.060
- 100% Conditioner A450 ± SEM [1]: 1.581 ± 0.046
- Skin A450 ± SEM [2]: 0.090 ± 0.136
- Hair A450 ± SEM [3]: 0.392 ± 0.065

Substance: HCP.6(5-FAM): HCP.6 with an added C-terminal lysine derivatized with fluorescent tag 5-carboxyfluorescein-aminohexyl amidite (STLHKYKSQDPTPHHK(5‑FAM))
- Buffer A450 ± SEM [1]: 1.420 ± 0.062
- 100% Conditioner A450 ± SEM [1]: 1.217 ± 0.075
- Skin A450 ± SEM [2]: −0.009 ± 0.023
- Hair A450 ± SEM [3]: 0.581 ± 0.053

Substance: STLHKYKSQDPTPHH (Hair conditioner-resistant hair-binding peptide) [HCP.6]
- binding activity after shampoo wash compared to buffer washes [4]: almost total loss of binding activity
- hair-binding activity after storage in the hair conditioner matrix [5]: no significant decrease
- difference in hair-binding activity from a hair conditioner matrix compared to buffer [1]: no significant difference
- binding to skin (in words) [2]: not to skin
- binding to hair (in words) [3]: bind to hair

Substance: THSTHNHGSPRHTNADAGNP (Hair conditioner-resistant hair-binding peptide) [HCP.1]
- binding activity after shampoo wash compared to buffer washes [4]: almost total loss of binding activity
- hair-binding activity after storage in the hair conditioner matrix [5]: no significant decrease
- difference in hair-binding activity from a hair conditioner matrix compared to buffer [1]: no significant difference
- binding to skin (in words) [2]: not to skin
- binding to hair (in words) [3]: bind to hair
